Experimental findings from US7595330B2, “Benzimidazole thiophene compounds” (SmithKline Beecham Corporation, priority 2005, dated 2009) are described below.

Some results are limits rather than exact numbers.

The test system of one data set is MDA-MB-468. In words: Cell-Titer-Glo inhibition of cell proliferation, MDA-MB-468. It is filed as cell-based. The conditions noted are these: Homo sapiens, CellTiter-Glo, 72 h. As for the experimental part: (§1) V. Cell-Titer-Glo—Inhibition of Cell Proliferation by PLK1 Inhibitors
(§2) Exponentially growing cell lines of different tumor origins, cultured in appropriate media containing 10% fetal bovine serum at 37° C. in a 5% CO2 incubator were plated at low density (less than 2000 cells/well) in 96-well plates. Twenty four hours post-plating, cells were treated with different concentrations of test compounds ranging from 10 uM to 0.04 nM. Several wells were left untreated as a control. Seventy two hours post-treatment, cell numbers were determined using 50-100 ul per well of CellTiter-Glo (Promega #G7573). Plates were incubated at room temperature for 15 minutes and the chemiluminescent signal was read on the Victor V or Envison 2100 reader.
(§3) The Cell-Titer Glo data are shown in Table 2 below and represent a compilation of several different experiments, each performed using the general parameters outlined above, although minor variations may have been employed in some instances.
A general note: In ATP-based viability assays light output follows the ATP content of the culture.

For data set [1], the system named is MCF7. In words: Methylene blue growth inhibition assay, MCF7. The conditions noted are these: Homo sapiens, MCF7, 72 h, read-out: MCF7 IC50 (μM). It is filed as cell-based. As for the experimental part: (§4) II. Methylene Blue Growth Inhibition Assay—Inhibition of Cell Proliferation by PLK1 Inhibitors
(§5) Generally, exponentially growing cell lines of different tumor origins, cultured in appropriate media containing 10% fetal bovine serum at 37° C. in a 5% CO2 incubator were plated at low density (less than 2000 cells/well) in 96-well plates. […]. Seventy two hours post-treatment, cell numbers were determined using 100 μl per well of methylene blue (Sigma M9140) (0.5% in 50:50 Ethanol:water). Stain was incubated at room temperature for 30 minutes before plates were rinsed and dye solubilized in 1% N-lauroyl sarcosine, sodium salt, (Sigma L5125, in PBS) (further details of a methylene blue assay are described below). Plates were read on a microplate reader, measuring the OD at 620 nm.
(§6) . The data are shown in Table 1 below and represent a compilation of several different experiments, each performed using the general parameters outlined above, although minor variations may have been employed in some instances.
(§7) In one assay, normal human foreskin fibroblasts (HFF), human colon (HCT116, RKO), lung (H460, A549) and breast (MCF7) tumor cell lines were cultured in high glucose DMEM (Life Technologies) containing 10% fetal bovine serum (FBS) at 37° C. in a humidified 5% CO2, 95% air incubator. Cells were harvested using trypsin/EDTA, counted using a haemocytometer, and plated in 100 μL of culture media per well, at the following densities, in a 96-well tissue culture plate (Falcon 3075): HFF 5,000 cells/well, HCT116 3,000 cells/well, RKO 2,500 cells/well, H460 2,500 cells/well, A549 5,000 cells/well, MCF7 4,000 cells/well. The next day, compounds were diluted in low glucose DMEM containing 100 μg/mL gentamicin, at twice the final required concentration, from 10 mM stock solutions in DMSO. 100 μL/well of these dilutions were added to the 100 μL of media currently in the assay plates. Medium containing 0.6% DMSO was added to control wells. The final concentration of DMSO in all wells was 0.3%. Cells were incubated at 37° C., 5% CO2 for 72 h. Medium was removed by aspiration. Cell biomass was estimated by staining cells with 80 μL per well methylene blue (Sigma M9140, 0.5% in 50:50 ethanol:water), and incubation at room temperature for 30-60 min. Stain was removed by aspiration and the plates rinsed by immersion in water, then air-dried. To release stain from the cells, 100 μL of solubilization solution was added (1% N-lauroyl sarcosine, Sodium salt, Sigma L5125, in PBS), and plates were shaken gently for about 30 min. Optical density at 620 nm was measured on a microplate reader. Percent inhibition of cell growth was calculated relative to vehicle treated control wells. […].

Data set [2] has as its system normal human foreskin fibroblasts (HFF). Description: Methylene blue growth inhibition assay, HFF. It is filed as cell-based. The conditions noted are these: Fibroblast, 72 h, read-out: HFF IC50 (μM). How it is done:
as §4, §5, §6, §7

The subject of another data set is A549. In words: Methylene blue growth inhibition assay, A549. It is filed as cell-based. The settings on record: Homo sapiens, A549, 72 h, read-out: A549 IC50 (μM). How it is done:
as §4, §5, §6, §7

Another data set relates to H460. Description: Methylene blue growth inhibition assay, H460. The conditions noted are these: Homo sapiens, NCI-H460, 72 h, read-out: H460 IC50 (μM). It is filed as cell-based. As for the experimental part:
as §4, §5, §6, §7

Another data set relates to human plasma proteins. In words: Protein binding to human plasma proteins using equilibrium dialysis. The conditions noted are these: pH 7.4, equilibrium dialysis 6 h, 37° C. It is filed as in vitro ADME. As for the experimental part:
III. Determination of Protein Binding to Human Plasma Proteins Using Equilibrium Dialysis
96 Well Plate (High Throughput Dialysis): Stock solutions of compounds were spiked into human plasma at a target concentration of 2000 ng/mL. The mixture was inverted gently several times to insure homogeneity and triplicate 50 μL aliquots were collected to verify initial concentrations. Following assembly of dialysis plate (HTDialysis membrane strips, molecular weight cut off limit of 12,000-14,000 daltons), spiked plasma (150 μL) was placed in the donor compartment of the well and Phosphate Buffered Saline pH 7.4 (150 μL) in the receiver compartment. Eight wells were set up per compound and plasma type. Plate was placed in a 37° C. incubator on a plate shaker. Following the 6 h incubation period, the plate was removed. Single 50 μL aliquots from each donor and receiver compartment (per well) were analyzed. Sample analysis was by LC/MS/MS (results reported as Drug Peak Area/Internal Standard Peak Area ratios). Protein binding assay can also be performed using dialysis cells instead of HT Dialysis 96 well plates. In Table 1, % Protein Binding, +=>98%; ++=95-98%: +++=<95%.
(In general: In equilibrium dialysis free small molecules cross a membrane that holds back macromolecules.)

The next data set concerns SKOV-3. In words: Cell-Titer-Glo inhibition of cell proliferation, SKOV-3. It is filed as cell-based. The settings on record: Homo sapiens, SK-OV-3, CellTiter-Glo, 72 h. How it is done:
as §1, §2, §3

Data set [3] concerns HCT116. In words: Methylene blue growth inhibition assay, HCT116. It is filed as cell-based. The conditions noted are these: Homo sapiens, HCT-116, 72 h, read-out: HCT116 IC50 (μM). As for the experimental part:
as §4, §5, §6, §7

The subject of a further data set is COLO205. In words: Cell-Titer-Glo inhibition of cell proliferation, COLO205. It is filed as cell-based. The conditions noted are these: Homo sapiens, COLO 205, CellTiter-Glo, 72 h. As for the experimental part:
as §1, §2, §3

A further data set concerns MX-1. Description: Cell-Titer-Glo inhibition of cell proliferation, MX-1. It is filed as cell-based. The conditions noted are these: Homo sapiens, MX1, CellTiter-Glo, 72 h. How it is done:
as §1, §2, §3

Another data set has as its system RKO. Description: Methylene blue growth inhibition assay, RKO. It is filed as cell-based. The conditions noted are these: Homo sapiens, 72 h, read-out: RKO IC50 (μM). How it is done: as §4, §5, §6, §7
The test system of another data set is HT29. Description: Cell-Titer-Glo inhibition of cell proliferation, HT29. It is filed as cell-based. The conditions noted are these: Homo sapiens, HT-29, CellTiter-Glo, 72 h. As for the experimental part:
as §1, §2, §3

Another data set has as its system MV522. Description: Cell-Titer-Glo inhibition of cell proliferation, MV522. It is filed as cell-based. The settings on record: CellTiter-Glo, 72 h. How it is done: as §1, §2, §3
For data set [4], the system named is HCT116. In words: Cell-Titer-Glo inhibition of cell proliferation, HCT116. It is filed as cell-based. The settings on record: Homo sapiens, HCT-116, CellTiter-Glo, 72 h. As for the experimental part:
as §1, §2, §3

Data set [5] deals with MCF7. In words: Cell-Titer-Glo inhibition of cell proliferation, MCF7. The conditions noted are these: Homo sapiens, CellTiter-Glo, 72 h. It is filed as cell-based. As for the experimental part:
as §1, §2, §3

Data set [6] in a line: High throughput solubility assay. It is filed as physicochemical. The settings on record: aqueous buffer, pH 7.4, 0.05M phosphate buffer. As for the experimental part:
IV. High Throughput Solubility Assay
Two samples are prepared for each compound. One (the standard sample) contains the compound at a fixed concentration of 20 μM in an aqueous/organic mixed solvent cocktail. The other (the test sample) contains the compound at a maximum concentration of 200 μM in pH 7.4, 0.05M phosphate buffer and shaking for 24 h. The test sample is filtered by 0.45μ filter and then spun for 10 min to remove any undissolved solid. HPLC analyses are preformed on these samples. The peak areas are used for computing solubility.

In a further data set the test system is H1299. Description: Cell-Titer-Glo inhibition of cell proliferation, H1299. It is filed as cell-based. The settings on record: Homo sapiens, NCI-H1299, CellTiter-Glo, 72 h. As for the experimental part: as §1, §2, §3
In a further data set the test system is A549-L. In words: Cell-Titer-Glo inhibition of cell proliferation, A549-L. It is filed as cell-based. The conditions noted are these: CellTiter-Glo, 72 h. How it is done: as §1, §2, §3

On to `C[C@@H](Oc1cc(-n2cnc3ccc(OC4CCNCC4)cc32)sc1C(N)=O)c1ccccc1C(F)(F)F` [Example 5, 5-[6-(4-Piperidinyloxy)-1H-benzimidazol-1-yl]-3-({(1R)-1-[2-(trifluoromethyl)phenyl]ethyl}oxy)-2-thiophenecarboxamide], for which the half-inhibitory concentration (IC50) (in general, the concentration needed to halve the response being measured) was under 500 nM in the data set with MDA-MB-468; under 0.1 µM with MCF7 [1]; 0.1 to 1 µM in data set [2]; under 0.1 µM in the data set with A549; under 0.1 µM in the data set on H460; under 500 nM with SKOV-3. The half-inhibitory concentration (IC50) with HCT116 [3] was under 0.1 µM; with COLO205 it was under 500 nM; with MX-1 it was under 500 nM; with RKO, under 0.1 µM; in the data set with HT29, under 500 nM; in the data set on MV522 it was under 500 nM. The IC50 in the data set on HCT116 [4], in the data set with MCF7 [5], with H1299 and with A549-L was under 500 nM each time. In addition, the unbound share (fraction unbound) (commonly the share of the substance not bound to proteins or other matrix) at 6 h, 2000 ng/mL in the data set on human plasma proteins lay within 0.02 to 0.05. In data set [6], the solubility (as a rule, the dissolved amount per volume that the medium holds) at 24 h was over 100 µM.
